Source: patent US20070269531A1, “Non-Steroid Anti-Inflammatory Agents with Vitamins, Minerals, and Dietary Supplements for the Prevention and Treatment of Primary, Secondary and Tertiary Cancer” (priority 2004, published 2007)
“And” between values parts separate entries of the source, which are not always exact repeats. Identical values can stand only once. Like-named read-outs stand apart in the source and are kept apart here.

Experiments:
MC-26 tumor [1] = details: for overall survival rate: day 50
Description: Starting on day 7 after tumor cell inoculation, mice were randomly divided into eight groups as follow:
Group 1: control; control chow; 0.9% NaCl injected intraperitoneally (IP) on days 9, 11, 15, 18, 23, and 28; and 5% IP glucose on days 8, 12, 15, 19, 22, and 25.
Group 4: irinotecan alone; control chow; irinotecan 30 mg/kg on days 8, 12, 15, 19, 22, and 25; and 0.9% NaCl on days 9, 11, 15, 18, 23, and 28.
The date and number of animal in each group were recorded for survival analysis.

[2] = meta-analysis (Lewis et al., 2002); cited from earlier work
[3] = test system: CD31 positive microvessels; experiment: CD31 microvessel immunohistochemistry of tumor sections; format: in vivo, mouse; details: P=0.059
Description: To assess anigiogenesis in tumor tissues, frozen sections were made and microvessels were stained with anti-mouse CD31 mnonocolonal antibodies (BD transduction laboratories). The specimens were incubated with secondary antibody for 1 h at 37° C. and stained by the avidin-biotin peroxide complex (ABC) method using an ABC staining kit (Santa Cruz Biotech, Santa Cruz, Calif.). They were visualized by 3,3′-diammobenzidme (DAB) and counlterstained with hematoxyhn.

[4] = Gross necroscopic examination for GI mucosal injury; format: in vivo, mouse; details: mice consuming chow containing ibuprofen
MC-26 liver metastasis = experiment: Experimental liver metastasis model (subsplenic MC-26 injection); format: in vivo, mouse; details: 1360 mg/kg chow for 14 days
Description: The incidence and extent of liver metastasis were then recorded.

HT-29 tumor = experiment: HT-29 human xenograft CRC model in nude mice; details: throughout the period of investigation
[5] = cited from earlier work
[6] = Plasma ibuprofen concentration in mice fed ibuprofen chow; format: in vivo, mouse; details: mice fed chow containing 1360 mg/kg; blood on days 7 and 14
Description: Ibuprofen was purchased from Sigma, and pellet-formed chow containing ibuprofen was prepared by Harlan Teklad (Madison, Wis.). Blood was drawn on day 7 and 14 by tail bleeding, and serum was separated from the whole blood and frozen at −70° C. until analysis.
The plasma samples were analyzed by a quantified liquid chromatography-tandem mass spectrometry (LC/MS/MS) method. Sample preparation was performed using protein precipitation.
A […] aliquot of internal standard working solution (3000 ng/mL of Phenacetin I.S. in acetonitrile) was added to 25 μL of plasma. Each sample was then vortexed and centrifuged for 15 min at a speed of 13,000 rpm at 4° C.
After centrifugation, 150 μL of the supernatant was transferred into an HPLC vial, and aliquots of 5 μL were injected using a Perkin Elmer 200 Series autosampler (Perkin Elmer: Norwalk Conn.). The loading and analytical columns were a Zorbax Extend C18 (4.6×12.5 mm, 5 μdp; Agilent Technologies: Palo Alto, Calif.) and a Waters Xterra C 18 (3.9×20 mm, 3.5 μdp; Waters Corporation: Milfaird, Mass.), respectively. […] The column effluent was analyzed by selected reaction monitoring using a triple quadruple mass spectrometer (Micromass Quattro Ultima; Manchester, UK) equipped with an electrospray ion source operating in negative ion mode.

HT-29 cells = experiment: In vitro cell proliferation assay (MTT), HT-29; format: cell-based, human; details: HT-29, 1000 μM, 72 h
Description: (§1) The transplantable mouse CRC cell line MC-26 (Singh et al., 1986) was obtained from Dr. K. K. Tanabe (Massachusetts General Hospital, Boston, Mass.), and the human colorectal adenocarcinoma cell line HT 29 was obtained from ATCC. MC-26 cells and HT-29 were maintained in Dulbecco's modified Eagle's medium (DMEM; Life Technologies, Inc, Gaithersburg, Md.) and McCoy's 5A medium, respectively, supplemented with 10% fetal calf sertum plus antibiotics at 37° C. in a humidified atmosphere of 95% air/5% C02. Human umbilical vein endothelial cells (HUVECs) was purchased from Canibrex (Walkersville, Md.) and maintained in EGM-2 medium (Cambrex).
(§2) In Vitro cell proliferation was assessed using a CellTiter 96®AQ One Solution Cell Proliferation Assay kit (Promega). 1-3×10^4 cells/ml were plated in 96-well microtiter plates and incubated overnight. […] 20 μl of MTS tetrazolium solution were added to each well, and the cells were further incubated at 37° C. for 1 h, at which time the reactions were stopped by the addition of 10% SDS. The absorbance at wavelength 490 nm was measured using an EX800 microplate reader (Bio-Tek, Highland, Wis.).

MC-26 cells = experiment: In vitro cell proliferation assay (MTT), MC-26; format: cell-based, mouse; details: 72 h
Description: as §1
In Vitro cell proliferation was assessed using a CellTiter 96®AQ One Solution Cell Proliferation Assay kit (Promega). 1-3×10^4 cells/ml were plated in 96-well microtiter plates and incubated overnight. […]

HT-29 cells PGE2 levels = experiment: Prostaglandin E2 ELISA, HT-29 conditioned medium; format: cell-based, human; details: 24 h
Description: as §1
(§3) Prostaglandin E2 (PGE2), the major metabolite of arachidonic acid metabolism, was measured by ELISA (Cayman Chemical, Ami Arbor, Mich.), using conditional cell culture medium, according to the protocol provided by manufacturer. Measurements were made in triplicate in separate experiments.

MC-26 tumor [7] = experiment: Subcutaneous MC-26 tumor model, single agent
HUVECs = experiment: In vitro angiogenesis (tube formation) assay; format: cell-based, human; details: 1000 μM
Description: An in vitro anigiogenesis assay was performed according to the protocol provided by manufacturer (Chemicon, Temecula, Calif.) and described previously ([…] et al., 2004; […] et al., 2004). […] Microscopic digital images were taken, and cumulative tube length was measured using SpotTM3.5.6.

HUVEC = HUVEC cell proliferation (MTT); format: cell-based, human; details: 1000 μM, 24 h
Description: as §1, §2

MC-26 cell PGE2 levels = experiment: Prostaglandin E2 ELISA, MC-26 conditioned medium; format: cell-based, mouse; details: MC-26 cells, 1000 μM, 24 h
Description: as §1, §3

## O=c1[nH]cc(F)c(=O)[nH]1 [5-FU, Fluorouracil]
MC-26 tumor [1]; 5-FU given with leucovorin
  overall survival rate: 30%
MC-26 tumor [1]; treatment day 7 to 28, 5-FU given with leucovorin, control 1491.3±862
  tumor volume: 499±234 mm^3

## CCc1c2c(nc3ccc(OC(=O)N4CCC(N5CCCCC5)CC4)cc13)-c1cc3c(c(=O)n1C2)COC(=O)[C@]3(O)CC [CPT-11, Irinotecan]
MC-26 tumor [1]; day 28, average over the named groups, control 19.65±1.24
  average body weight: 23.1 ± 1.72 g
MC-26 tumor [1]; 5-FU given with leucovorin
  overall survival rate: 80%
MC-26 tumor [1]; mouse, in vivo
  survival compared to control mice and other regimens: significantly prolonged

## O=C(O)Cc1ccccc1Nc1c(Cl)cccc1Cl [diclofenac]
[2]
  odds ratio, serious upper GI bleeding: 4.9

## CC(C)Cc1ccc(C(C)C(=O)O)cc1 (stereo not drawn) [ibuprofen]
[3]
  reduction in number of microvessels: ~30%
[4]
  gastroduodenal / GI mucosal injury: no evidence of gastroduodenal mucosal injury
[4]; listed as Ibuprofen
  gastroduodenal / GI mucosal injury: No GI mucosal injury
MC-26 liver metastasis
  liver metastases vs control: more prevalent and larger in the control group
MC-26 liver metastasis; listed as IB
  liver metastases vs control: Fewer liver metastases
HT-29 tumor
  body weight vs control: no significant difference in body weight
[5]; 300 mg capsule, fasting humans (Halsas et al., 1999)
  plasma ibuprofen peak concentration: approximately 27,000 ng/ml
[5]; healthy humans, long-term high-dose 14 mg/kg
  peak plasma concentration (Cmax): 65,000 ng/ml
[5]; healthy humans, low dose 2.6 mg/kg
  Cmax: 15,800 ng/ml
[5]; healthy humans, moderate dose 7 mg/kg
  Cmax: 34,000 ng/ml
[5]; single dose of 300 mg, humans (Halsas et al., 1999)
  peak plasma ibuprofen concentration: ≥ 27,000 ng/mil
[6]
  plasma ibuprofen concentration: ~18,760±7,270 ng/ml and ~20,978±5,966 ng/ml
HT-29 cells
  MTT levels diminished compared to control: 26.7%
MC-26 cells; 125 μM
  decrease in MC-26 cell proliferation: 1.3%
MC-26 cells; 250 μM
  decrease in MC-26 cell proliferation: 5.8%
MC-26 cells; 500 μM
  decrease in MC-26 cell proliferation: 11.3%
MC-26 cells; 1000 μM
  decrease in MC-26 cell proliferation: 39.8%
HT-29 cells PGE2 levels
  PGE2 levels diminished compared to control: 81.1%
HT-29 cells PGE2 levels; control 95.6 pg/mL
  PGE2 level: 18 pg/mL
MC-26 tumor [7]; chow containing 1360 ppm, summary over mouse and human CRC models
  tumor growth inhibited: 40-82%
MC-26 tumor [7]; day 21, control 20.3±2.6
  average body weight: 24.1 ± 1.73 g
HUVECs; 6 h
  reduction in tube length: 40%
HUVECs; 6 h, control 155.4±21.3
  tube length: 94.0±24.9 μm
HUVECs; 24 h
  reduction in tube length: 88%
HUVECs; 24 h, control 76.2±13.5
  tube length: 9.40±6.95 μm
HUVEC
  MTT levels diminished compared to control: approximately 80%
MC-26 cell PGE2 levels
  PGE2 levels diminished compared to control: 70.1%
MC-26 cell PGE2 levels; control 268.5
  PGE2 level: 80.0 pg/mL

## COc1ccc2cc([C@H](C)C(=O)O)ccc2c1 [naproxen]
[2]
  odds ratio, serious upper GI bleeding: 9.1

## CN1C(C(=O)Nc2ccccn2)=C(O)c2ccccc2S1(=O)=O [piroxicam]
[2]
  odds ratio, serious upper GI bleeding: 13.1
